Assay results taken from article PMC3344845, “Structure of Bradavidin – C-Terminal Residues Act as Intrinsic Ligands” (PLoS ONE, 2012).

What was measured:
Assay type in all cases: binding
wt bradavidin [1] = target: T1, wt bradavidin (Bradyrhizobium diazoefficiens, UniProt Q89IH6); assay: isothermal titration calorimetry
T1 construct: gene blr5658; E. coli BL21-AI periplasm; homotetramer
T1 sequence (Q89IH6 26-163): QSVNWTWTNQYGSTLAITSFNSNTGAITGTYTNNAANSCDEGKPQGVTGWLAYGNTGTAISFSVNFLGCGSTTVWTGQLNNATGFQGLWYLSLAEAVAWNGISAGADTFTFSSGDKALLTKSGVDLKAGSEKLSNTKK
From the text: isothermal titration calorimetry on wt bradavidin

wt bradavidin [2] = target: T1, wt bradavidin; assay: differential scanning calorimetry; details: 50 mM sodium phosphate pH 7.0, 100 mM NaCl; 15 µM protein, ~3:1 biotin:subunit; 120 °C/hour
core-bradavidin [3] = target: T2, core-bradavidin (Bradyrhizobium diazoefficiens, UniProt Q89IH6); assay: differential scanning calorimetry; details: 50 mM sodium phosphate pH 7.0, 100 mM NaCl; 15 µM protein, ~3:1 biotin:subunit; 120 °C/hour
T2 construct: gene blr5658; C-terminally truncated core form, 118 residues (truncation between Leu118 and Leu119), lacks Brad-tag; E. coli BL21-AI periplasm; homotetramer

core-bradavidin [4] = target: T2, core-bradavidin; assay: isothermal titration calorimetry
From the text: isothermal titration calorimetry on core-bradavidin

`O=C(O)CCCC[C@@H]1SC[C@@H]2NC(=O)N[C@@H]21` [D-biotin] was tested. Which Kd (wt bradavidin [1]) did it give?
The Kd was 300 nM.

What about the Tm with biotin (wt bradavidin [2]) of the same molecule?
Its Tm with biotin is 101.7±0.1 °C.

And the Tm with biotin (core-bradavidin [3])?
Its Tm with biotin is 97.9±0.2 °C.

What about the Kd (core-bradavidin [4]) of the same molecule?
Its Kd is < 1 nM.
